Experimental data reported in patent publication US11377442B2, “Small molecule agonists and antagonists of NR2F6 activity” (ZANDER THERAPEUTICS, INC., priority 2016, dated 2022).
Where “and” joins values, the source holds several entries; their conditions need not be identical. Equal values may be shown once. Read-outs that look alike come from different tables or passages of the source.

How the values were obtained:
Format in all cases: cell-based
[1] = system: HEK293 pGL4; assay: Firefly_pGL signal, cmpd/DMSO (pGL4 control cells); settings: Homo sapiens
[2] = system: Renilla; assay: Renilla signal, LBD, cmpd/DMSO (NR2F6 LBD transfected cells)
[3] = system: Renilla; assay: Renilla signal in NR2F6 agonist screening, cmpd/DMSO; settings: Renilla
[4] = biological target: T1, NR2F6 LBD (Homo sapiens, UniProt P10588); assay: NR2F6 LBD transient transfection
T1 construct: expressed in transfected cells
T1 sequence (P10588 165-393 limits assumed): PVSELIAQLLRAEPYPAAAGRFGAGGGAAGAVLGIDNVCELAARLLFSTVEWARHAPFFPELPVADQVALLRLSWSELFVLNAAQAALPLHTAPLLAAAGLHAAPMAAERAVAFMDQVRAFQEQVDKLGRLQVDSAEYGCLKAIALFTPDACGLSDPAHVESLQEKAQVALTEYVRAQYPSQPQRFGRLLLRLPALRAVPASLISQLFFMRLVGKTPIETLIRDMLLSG
Outline: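 LBD-transfected cells treated at 40, 10, 2 and 0.5 μM (4 replicates); cytotoxicity measured in parallel, normalized to DMSO (0%) and zero signal (100%). Higher concentrations excluded where signal loss reflected toxicity.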

[5] = biological target: T2, NR2F6 (Homo sapiens, UniProt P10588); assay: NR2F6 agonist screening, Firefly signal cmpd/DMSO
T2 construct: expressed in transfected cells; also transient transfection
T2 sequence (P10588 1-404): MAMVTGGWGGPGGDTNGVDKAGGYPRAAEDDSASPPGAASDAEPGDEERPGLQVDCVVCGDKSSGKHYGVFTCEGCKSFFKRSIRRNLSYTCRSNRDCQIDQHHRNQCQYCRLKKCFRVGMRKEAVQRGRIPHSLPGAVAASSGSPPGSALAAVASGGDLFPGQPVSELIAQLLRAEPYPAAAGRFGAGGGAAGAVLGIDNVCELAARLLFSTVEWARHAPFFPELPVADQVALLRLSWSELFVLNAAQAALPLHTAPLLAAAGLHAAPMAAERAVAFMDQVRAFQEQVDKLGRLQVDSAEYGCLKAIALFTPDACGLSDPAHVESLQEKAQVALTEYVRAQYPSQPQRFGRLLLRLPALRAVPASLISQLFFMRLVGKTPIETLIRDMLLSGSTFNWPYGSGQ

[6] = read-out: Renilla F4, cmpd/DMSO (mean)
[7] = F4, read-out: Renilla, F4, cmpd/DMSO (mean)
[8] = F4, 1% FBS, read-out: Renilla, F4, 1% FBS, cmpd/DMSO (mean)
[9] = F4, 10% FBS, read-out: Renilla, F4, 10% FBS, cmpd/DMSO (mean)

`O=S1(=O)C[C@H](N2CCCC2)[C@@H](S(=O)(=O)c2cccs2)C1` [Compound D104] gave a fold induction at 0.5 µM ([1]; HEK293, 0.5 uM, pGL4, read-out: Firefly pGL4, cmpd/DMSO (mean)) of 1.3, a fold induction at 0.5 µM ([1]; HEK293, 0.5 uM, read-out: Firefly pGL4, cmpd/DMSO (mean)) of 1.2 and a fold induction at 2 µM ([1]; HEK293, 2 uM, pGL4, read-out: Firefly pGL4, cmpd/DMSO (mean)) of 1.4. For the same compound, the fold induction at 2 µM ([1]; HEK293, 2 uM, read-out: Firefly pGL4, cmpd/DMSO (mean)) was 1.8, the fold induction at 10 µM ([1]; HEK293, 10 uM, pGL4, read-out: Firefly pGL4, cmpd/DMSO (mean)) was 4 and the fold induction at 10 µM ([1]; HEK293, 10 uM, read-out: Firefly pGL4, cmpd/DMSO (mean)) was 2.4. It also gave a fold induction at 40 µM ([1]; HEK293, 40 uM, pGL4, read-out: Firefly pGL4, cmpd/DMSO (mean)) of 0.7, a fold induction at 40 µM ([1]; HEK293, 40 uM, read-out: Firefly pGL4, cmpd/DMSO (mean)) of 0.7 and a fold induction at 0.5 µM ([1]; HEK293, pGL4, 1% FBS, 0.5 uM, read-out: Firefly, pGL4, 1% FBS, cmpd/DMSO (mean)) of 1. For the same compound, the fold induction at 2 µM ([1]; HEK293, pGL4, 1% FBS, 2 uM, read-out: Firefly, pGL4, 1% FBS, cmpd/DMSO (mean)) was 1, the fold induction at 10 µM ([1]; HEK293, pGL4, 1% FBS, 10 uM, read-out: Firefly, pGL4, 1% FBS, cmpd/DMSO (mean)) was 1.5 and the fold induction at 40 µM ([1]; HEK293, pGL4, 1% FBS, 40 uM, read-out: Firefly, pGL4, 1% FBS, cmpd/DMSO (mean)) was 0.6. It also gave a fold induction at 0.5 µM ([1]; HEK293, pGL4, 10% FBS, 0.5 uM, read-out: Firefly, pGL4, 10% FBS, cmpd/DMSO (mean)) of 1.1, a fold induction at 2 µM ([1]; HEK293, pGL4, 10% FBS, 2 uM, read-out: Firefly, pGL4, 10% FBS, cmpd/DMSO (mean)) of 1.7 and a fold induction at 10 µM ([1]; HEK293, pGL4, 10% FBS, 10 uM, read-out: Firefly, pGL4, 10% FBS, cmpd/DMSO (mean)) of 2.7. The fold induction at 40 µM ([1]; HEK293, pGL4, 10% FBS, 40 uM, read-out: Firefly, pGL4, 10% FBS, cmpd/DMSO (mean)) was 0.5, the “Renilla LBD, cmpd/DMSO (mean)” value ([2]; 0.5 uM) was 1.1 and the “Renilla LBD, cmpd/DMSO (mean)” value ([2]; 2 uM) was 1.1. The “Renilla LBD, cmpd/DMSO (mean)” value ([2]; 10 uM) was 0.6, the “Renilla LBD, cmpd/DMSO (mean)” value ([2]; 40 uM) was 0.2 and the fold induction at 0.5 µM [3, 6] was 1.2. For the same compound, the fold induction at 2 µM [3, 6] was 2, the fold induction at 10 µM [3, 6] was 1.7 and the fold induction at 40 µM [3, 6] was 0.3. For the same compound, the fold induction at 0.5 µM [3, 7] was 1.1, the fold induction at 2 µM [3, 7] was 1.2 and the fold induction at 10 µM [3, 7] was 1.6. For the same compound, the fold induction at 40 µM [3, 7] was 0.3, the fold induction at 0.5 µM [3, 8] was 1.1 and the fold induction at 2 µM [3, 8] was 1.4. The fold induction at 10 µM [3, 8] was 2.4, the fold induction at 40 µM [3, 8] was 1 and the fold induction at 0.5 µM [3, 9] was 1. The fold induction at 2 µM [3, 9] was 1.3, the fold induction at 10 µM [3, 9] was 2.5 and the fold induction at 40 µM [3, 9] was 2.2. The “Firefly LBD, cmpd/DMSO (mean)” value ([4]; 0.5 uM) was 1.3, the “Firefly LBD, cmpd/DMSO (mean)” value ([4]; 0.5 uM, LBD) was 1.3 and the “Firefly LBD, cmpd/DMSO (mean)” value ([4]; 2 uM) was 2.9. For the same compound, the “Firefly LBD, cmpd/DMSO (mean)” value ([4]; 2 uM, LBD) was 1.7, the “Firefly LBD, cmpd/DMSO (mean)” value ([4]; 10 uM) was 1.2 and the “Firefly LBD, cmpd/DMSO (mean)” value ([4]; 10 uM, LBD) was 3.3. The “Firefly LBD, cmpd/DMSO (mean)” value ([4]; 40 uM) was 0.2, the “Firefly LBD, cmpd/DMSO (mean)” value ([4]; 40 uM, LBD) was 0.6 and the “Firefly F4, cmpd/DMSO (mean)” value ([5]; 0.5 uM) was 2.1. For the same compound, the “Firefly F4, cmpd/DMSO (mean)” value ([5]; 0.5 uM, F4) was 1.7, the “Firefly F4, cmpd/DMSO (mean)” value ([5]; 2 uM) was 4.5 and the “Firefly F4, cmpd/DMSO (mean)” value ([5]; 2 uM, F4) was 2.4. The “Firefly F4, cmpd/DMSO (mean)” value ([5]; 10 uM) was 4.3, the “Firefly F4, cmpd/DMSO (mean)” value ([5]; 10 uM, F4) was 6.2 and the “Firefly F4, cmpd/DMSO (mean)” value ([5]; 40 uM) was 1.0. The “Firefly F4, cmpd/DMSO (mean)” value ([5]; 40 uM, F4) was 0.8, the “F4, Firefly/Renilla for S/B(F4) > 3” value ([5]; 1% FBS, 10 uM) was 3.5 and 2.6 and the “F4, Firefly/Renilla for S/B(F4) > 3” value ([5]; 10% FBS, 10 uM) was 4.5 and 4.9. For the same compound, the “Firefly, F4/pGL4 for S/B(F4) > 3” value ([5]; 10% FBS, 10 uM) was 4.2 and 4.3, the “Firefly, F4, 1% FBS, cmpd/DMSO (mean)” value ([5]; F4, 1% FBS, 0.5 uM) was 0.9 and the “Firefly, F4, 1% FBS, cmpd/DMSO (mean)” value ([5]; F4, 1% FBS, 2 uM) was 1.9 and 1.6. For the same compound, the “Firefly, F4, 1% FBS, cmpd/DMSO (mean)” value ([5]; F4, 1% FBS, 10 uM) was 8.5 and 5.1, the “Firefly, F4, 1% FBS, cmpd/DMSO (mean)” value ([5]; F4, 1% FBS, 40 uM) was 0.7 and 0.4 and the “Firefly, F4, 10% FBS, cmpd/DMSO (mean)” value ([5]; F4, 10% FBS, 0.5 uM) was 0.8 and 1.3. The “Firefly, F4, 10% FBS, cmpd/DMSO (mean)” value ([5]; F4, 10% FBS, 2 uM) was 1.4 and 1.5, the “Firefly, F4, 10% FBS, cmpd/DMSO (mean)” value ([5]; F4, 10% FBS, 10 uM) was 11 and 13 and the “Firefly, F4, 10% FBS, cmpd/DMSO (mean)” value ([5]; F4, 10% FBS, 40 uM) was 1.4 and 1.0. For the same compound, the “Activity, cmpd/DMSO” value ([5]; Table 31) was 7.1.
